From publication PMC3558932 (Chemistry & biology, 2013)

Experiments:
Rv0831c = Rv0831c (Mycobacterium tuberculosis, UniProt O53842)
Rv0036c = Rv0036c (Mycobacterium tuberculosis, UniProt P9WM91)
Rv0282 = Rv0282 (Mycobacterium tuberculosis, UniProt P9WPI3); conditions: 20 uM probe, lysate in PBS, 37 °C, 1 h; covalent
Rv0941c = Rv0941c (Mycobacterium tuberculosis, UniProt P71568); conditions: 20 uM probe, lysate in PBS, 37 °C, 1 h; covalent

Rv0036c, sequence (P9WM91 whole entry): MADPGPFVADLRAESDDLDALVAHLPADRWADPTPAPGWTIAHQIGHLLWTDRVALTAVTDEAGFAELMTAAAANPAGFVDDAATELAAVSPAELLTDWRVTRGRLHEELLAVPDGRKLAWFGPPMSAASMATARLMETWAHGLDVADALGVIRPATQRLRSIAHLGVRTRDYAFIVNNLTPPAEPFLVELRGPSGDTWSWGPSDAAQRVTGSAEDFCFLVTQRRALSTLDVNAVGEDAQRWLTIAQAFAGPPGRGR
Rv0282, sequence (P9WPI3 whole entry, looked up): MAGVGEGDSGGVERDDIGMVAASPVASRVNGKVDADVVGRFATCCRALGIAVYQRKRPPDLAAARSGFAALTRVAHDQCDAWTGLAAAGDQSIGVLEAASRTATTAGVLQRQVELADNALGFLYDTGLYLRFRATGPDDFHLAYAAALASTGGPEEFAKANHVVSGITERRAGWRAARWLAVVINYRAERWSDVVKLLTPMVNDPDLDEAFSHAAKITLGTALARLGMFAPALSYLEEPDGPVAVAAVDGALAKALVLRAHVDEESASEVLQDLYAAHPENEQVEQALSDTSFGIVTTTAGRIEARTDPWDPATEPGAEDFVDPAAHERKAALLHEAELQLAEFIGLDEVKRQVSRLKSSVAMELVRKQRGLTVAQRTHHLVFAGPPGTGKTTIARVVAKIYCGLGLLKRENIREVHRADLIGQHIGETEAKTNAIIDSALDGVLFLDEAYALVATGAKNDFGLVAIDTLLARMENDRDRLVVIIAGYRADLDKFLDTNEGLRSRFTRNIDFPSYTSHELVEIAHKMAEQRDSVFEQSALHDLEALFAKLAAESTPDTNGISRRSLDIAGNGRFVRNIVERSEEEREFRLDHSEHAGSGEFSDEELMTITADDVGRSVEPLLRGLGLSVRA

Molecule	competition with ATP-ABP labelling, gel fluorescence (Rv0831c)	competition with ATP-ABP labelling, gel fluorescence (Rv0036c)	fold enrichment over negative control (Rv0282) [fold]	fold enrichment over control (Rv0941c) [fold]
Nc1ncnc2c1ncn2[C@@H]1O[C@H](COP(=O)(O)OP(=O)(O)OP(=O)(O)O)[C@@H](O)[C@H]1O [ATP]	ATP and ATPγS competed with probe binding	ATP and ATPγS competed with probe binding	–	–
Nc1ncnc2c1ncn2[C@@H]1O[C@H](COP(=O)(O)OP(=O)(O)OP(O)(O)=S)[C@@H](O)[C@H]1O [ATPγS]	ATP and ATPγS competed with probe binding	ATP and ATPγS competed with probe binding	–	–
ATP-ABP	–	–	4	15
